Experimental data as given in article PMC11062899, “De novo development of small cyclic peptides that are orally bioavailable” (Nature Chemical Biology, 2023).
Several values for one entry are separate records, joined by “and”; a condition that tells them apart may be missing. Equal values may be shown once. Read-outs that look alike come from different tables or passages of the source.

How the values were obtained:
human α-thrombin = human α-thrombin (Homo sapiens, UniProt P00734); assay: Protease inhibition, Ki for human α-thrombin (fluorogenic substrate Z-Gly-Gly-Arg-AMC); format: biochemical; settings: human alpha thrombin; for Slope normalized to DMSO (proteolytic substrate cleavage over time): replicates R1-R3
In short: (§1)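 Inhibition was measured as AMC fluorescence from 50 μM substrate, monitored for 30 min at 25 °C, relative to a peptide-free control. Human and rat enzymes were present at 2 nM and 3 nM final, respectively, in 50 mM Tris-HCl pH 7.4, 150 mM NaCl, 10 mM MgCl2, 1 mM CaCl2. Ki derives from fitted IC50 via Cheng–Prusoff.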

[1] = Passive artificial membrane permeability (PAMPA)
porcine pancreatin = assay: Peptide stability in simulated intestinal fluid (SIF); format: in vitro ADME; settings: after 8 h vs 0 h (TIC)
In short: (§2)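 Peptide from a 1 mM DMSO stock was added to fluid pre-warmed at 37 °C. SGF was pH 1.2 NaCl with porcine pepsin (0.32 g per 100 ml), and SIF was pH 6.8 potassium phosphate with porcine pancreatin (1 g per 100 ml). Supernatant peptide was quantified by LC–MS, with residual expressed as T1/T0.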

[2] = as above; format: in vitro ADME, porcine; settings: simulated gi fluid; 8 h, 37 °C, pH 6.8; read-out: Proteolytic stability: SIF (8 h) % remaining
In short: as §2

porcine pepsin = biological target: T1, porcine pepsin (Sus scrofa, UniProt P00791); assay: Peptide stability in simulated gastric fluid (SGF); format: in vitro ADME
T1 construct: 0.32 g of porcine pepsin (Sigma-Aldrich, P7125) was dissolved under gentle agitation; purchased Sigma-Aldrich P7125
In short: as §2

rat α-thrombin = biological target: T2, rat α-thrombin (Rattus norvegicus, UniProt P18292); assay: Protease inhibition, Ki for rat α-thrombin (fluorogenic substrate Z-Gly-Gly-Arg-AMC); format: biochemical; settings: rat alpha thrombin; for Slope normalized to DMSO (proteolytic substrate cleavage over time): replicates R1-R3
T2 construct: rat α-thrombin (Molecular Innovations) were used at final concentrations of 2 nM and 3 nM; purchased Molecular Innovations
In short: as §1

T1 sequence (P00791 60-385): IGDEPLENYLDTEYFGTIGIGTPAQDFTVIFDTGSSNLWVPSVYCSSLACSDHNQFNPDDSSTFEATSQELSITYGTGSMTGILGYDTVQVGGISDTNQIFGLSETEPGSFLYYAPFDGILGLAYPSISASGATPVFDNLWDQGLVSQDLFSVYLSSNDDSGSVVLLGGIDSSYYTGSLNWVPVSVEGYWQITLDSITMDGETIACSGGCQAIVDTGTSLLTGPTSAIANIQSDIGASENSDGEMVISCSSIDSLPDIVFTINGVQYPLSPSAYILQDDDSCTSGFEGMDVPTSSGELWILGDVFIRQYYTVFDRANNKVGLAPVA

Ki (human α-thrombin; average of R1-R3, read-out: Ki Average, human alpha thrombin inhibition): 96.6 nM
Slope normalized to DMSO (proteolytic substrate cleavage over time) (human α-thrombin; peptide 1.02E-03 uM): 103.0 and 105.2 and 102.2
Slope normalized to DMSO (proteolytic substrate cleavage over time) (human α-thrombin; peptide 1.04E+00 uM): 21.7 and 19.1 and 21.5
Slope normalized to DMSO (proteolytic substrate cleavage over time) (human α-thrombin; peptide 1.27E-04 uM): 106.0 and 98.8 and 103.2
Slope normalized to DMSO (proteolytic substrate cleavage over time) (human α-thrombin; peptide 1.30E-01 uM): 57.8 and 50.1 and 54.9
Slope normalized to DMSO (proteolytic substrate cleavage over time) (human α-thrombin; peptide 1.59E-05 uM): 109.2 and 97.6 and 100.1
Slope normalized to DMSO (proteolytic substrate cleavage over time) (human α-thrombin; peptide 1.63E-02 uM): 89.4 and 85.3 and 86.8
Slope normalized to DMSO (proteolytic substrate cleavage over time) (human α-thrombin; peptide 1.67E+01 uM): 7.7 and 6.1 and 7.5
Slope normalized to DMSO (proteolytic substrate cleavage over time) (human α-thrombin; peptide 2.03E-03 uM): 102.9 and 97.6 and 97.7
Slope normalized to DMSO (proteolytic substrate cleavage over time) (human α-thrombin; peptide 2.08E+00 uM): 19.7 and 13.9 and 8.6
Slope normalized to DMSO (proteolytic substrate cleavage over time) (human α-thrombin; peptide 2.54E-04 uM): 113.7 and 102.5 and 100.7
Slope normalized to DMSO (proteolytic substrate cleavage over time) (human α-thrombin; peptide 2.60E-01 uM): 43.1 and 35.0 and 39.7
Slope normalized to DMSO (proteolytic substrate cleavage over time) (human α-thrombin; peptide 3.18E-05 uM): 105.3 and 102.8 and 93.4
Slope normalized to DMSO (proteolytic substrate cleavage over time) (human α-thrombin; peptide 3.26E-02 uM): 88.2 and 77.6 and 78.4
Slope normalized to DMSO (proteolytic substrate cleavage over time) (human α-thrombin; peptide 3.33E+01 uM): 6.8 and 6.6
Slope normalized to DMSO (proteolytic substrate cleavage over time) (human α-thrombin; peptide 4.07E-03 uM): 95.5 and 99.8 and 99.7
Slope normalized to DMSO (proteolytic substrate cleavage over time) (human α-thrombin; peptide 4.17E+00 uM): 12.3 and 14.8 and 9.6
Slope normalized to DMSO (proteolytic substrate cleavage over time) (human α-thrombin; peptide 5.09E-04 uM): 101.7 and 102.5 and 100.0
Slope normalized to DMSO (proteolytic substrate cleavage over time) (human α-thrombin; peptide 5.21E-01 uM): 26.3 and 24.6 and 23.6
Slope normalized to DMSO (proteolytic substrate cleavage over time) (human α-thrombin; peptide 6.36E-05 uM): 99.2 and 97.4 and 102.8
Slope normalized to DMSO (proteolytic substrate cleavage over time) (human α-thrombin; peptide 6.51E-02 uM): 70.8 and 64.0 and 70.3
Slope normalized to DMSO (proteolytic substrate cleavage over time) (human α-thrombin; peptide 6.67E+01 uM): 6.9 and 8.6 and 6.6
Slope normalized to DMSO (proteolytic substrate cleavage over time) (human α-thrombin; peptide 7.95E-06 uM): 102.4 and 98.2 and 102.1
Slope normalized to DMSO (proteolytic substrate cleavage over time) (human α-thrombin; peptide 8.14E-03 uM): 92.1 and 87.0 and 91.2
Slope normalized to DMSO (proteolytic substrate cleavage over time) (human α-thrombin; peptide 8.33E+00 uM): 12.3 and 13.7 and 5.0
IC50 (human α-thrombin; single replicates R1-R3, read-out: IC50, human alpha thrombin inhibition): 139 nM and 101 nM and 135 nM
Ki (human α-thrombin; single replicates R1-R3, read-out: Ki, human alpha thrombin inhibition): 108 nM and 78 nM and 104 nM
PAMPA permeability: % permeability ([1]; 50 μM, 12–18 h, acceptor concentration relative to equilibrium): 45 ± 10%
Papp at 50 μM ([1]; PAMPA, pH 7.4): 5.89 ×10⁻⁶ cm/s
Permeability% Average ([1]; top well sample vs theoretical equilibrium sample (TIC), average of R1-R3): 45.3%
Permeability% ([1]; top well sample vs theoretical equilibrium sample (TIC), single replicates R1-R3): 55.48% and 44.56% and 35.81%
SIF stability, Residual peptide Average (porcine pancreatin; average of R1-R3): 68.57
SIF stability, Residual peptide (porcine pancreatin; single replicates R1-R3): 74.90 and 62.29 and 68.52
remaining at 8 h [2]: 69 ± 6%
SGF stability, Residual peptide Average (porcine pepsin; after 8 h vs 0 h (TIC), average of R1-R3): 94.64
SGF stability, Residual peptide (porcine pepsin; after 8 h vs 0 h (TIC), single replicates R1-R3): 93.36 and 101.37 and 89.19
remaining at 8 h (porcine pepsin; simulated gi fluid, 8 h, 37 °C, pH 1.2, read-out: Proteolytic stability: SGF (8 h) % remaining): 95 ± 6%
Ki (rat α-thrombin; average of R1-R3, read-out: Ki Average, rat alpha thrombin inhibition): 48.7 nM
Slope normalized to DMSO (proteolytic substrate cleavage over time) (rat α-thrombin; peptide 1.02E-03 uM): 97.0 and 99.6 and 95.3
Slope normalized to DMSO (proteolytic substrate cleavage over time) (rat α-thrombin; peptide 1.04E+00 uM): 14.5 and 15.6 and 13.7
Slope normalized to DMSO (proteolytic substrate cleavage over time) (rat α-thrombin; peptide 1.27E-04 uM): 100.8 and 101.2 and 98.8
Slope normalized to DMSO (proteolytic substrate cleavage over time) (rat α-thrombin; peptide 1.30E-01 uM): 42.9 and 43.5 and 41.1
Slope normalized to DMSO (proteolytic substrate cleavage over time) (rat α-thrombin; peptide 1.59E-05 uM): 100.2 and 103.5 and 96.9
Slope normalized to DMSO (proteolytic substrate cleavage over time) (rat α-thrombin; peptide 1.63E-02 uM): 81.2 and 82.0 and 78.1
Slope normalized to DMSO (proteolytic substrate cleavage over time) (rat α-thrombin; peptide 1.67E+01 uM): 4.8 and 6.2 and 3.6
Slope normalized to DMSO (proteolytic substrate cleavage over time) (rat α-thrombin; peptide 2.03E-03 uM): 97.0 and 98.5 and 91.0
Slope normalized to DMSO (proteolytic substrate cleavage over time) (rat α-thrombin; peptide 2.08E+00 uM): 9.6 and 11.2 and 10.1
Slope normalized to DMSO (proteolytic substrate cleavage over time) (rat α-thrombin; peptide 2.54E-04 uM): 101.1 and 99.8 and 96.9
Slope normalized to DMSO (proteolytic substrate cleavage over time) (rat α-thrombin; peptide 2.60E-01 uM): 27.4 and 28.5 and 28.0
Slope normalized to DMSO (proteolytic substrate cleavage over time) (rat α-thrombin; peptide 3.18E-05 uM): 101.5 and 104.3 and 97.0
Slope normalized to DMSO (proteolytic substrate cleavage over time) (rat α-thrombin; peptide 3.26E-02 uM): 78.3 and 77.8 and 74.1
Slope normalized to DMSO (proteolytic substrate cleavage over time) (rat α-thrombin; peptide 3.33E+01 uM): 5.1 and 5.9 and 3.3
Slope normalized to DMSO (proteolytic substrate cleavage over time) (rat α-thrombin; peptide 4.07E-03 uM): 94.4 and 95.7 and 92.3
Slope normalized to DMSO (proteolytic substrate cleavage over time) (rat α-thrombin; peptide 4.17E+00 uM): 6.3 and 7.7 and 3.6
Slope normalized to DMSO (proteolytic substrate cleavage over time) (rat α-thrombin; peptide 5.09E-04 uM): 98.0 and 98.3 and 95.3
Slope normalized to DMSO (proteolytic substrate cleavage over time) (rat α-thrombin; peptide 5.21E-01 uM): 18.6 and 18.9 and 16.5
Slope normalized to DMSO (proteolytic substrate cleavage over time) (rat α-thrombin; peptide 6.36E-05 uM): 100.6 and 99.7 and 96.2
Slope normalized to DMSO (proteolytic substrate cleavage over time) (rat α-thrombin; peptide 6.51E-02 uM): 60.0 and 58.6 and 62.0
Slope normalized to DMSO (proteolytic substrate cleavage over time) (rat α-thrombin; peptide 6.67E+01 uM): 5.5 and 6.9 and 1.9
Slope normalized to DMSO (proteolytic substrate cleavage over time) (rat α-thrombin; peptide 7.95E-06 uM): 105.3 and 103.4 and 99.9
Slope normalized to DMSO (proteolytic substrate cleavage over time) (rat α-thrombin; peptide 8.14E-03 uM): 89.5 and 90.6 and 84.9
Slope normalized to DMSO (proteolytic substrate cleavage over time) (rat α-thrombin; peptide 8.33E+00 uM): 6.7 and 6.6 and 4.7
IC50 (rat α-thrombin; single replicates R1-R3, read-out: IC50, rat alpha thrombin inhibition): 86.2 nM and 82.3 nM and 95.4 nM
SMILES: O=C1C[C@H]2CCCN2C(=O)[C@H](Cc2ccccc2)NC(=O)[C@@H](NC(=O)c2ccc(Cl)s2)CCSCc2cccc(n2)CSCCN1 [compound 33]
Ki (rat α-thrombin; single replicates R1-R3, read-out: Ki, rat alpha thrombin inhibition): 47.7 nM (2×) and 45.6 nM (2×) and 52.8 nM (2×)
